Measurements: patent US6737383B1, “Herbicidal oxadiazolidines” (priority 1999, dated 2004)

What was measured:
bedstraw = experiment: Test B pre/postemergence bedstraw; type: in vivo, Galium aparine
How it was run: (§1)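 Response is a visual 0-to-10 score relative to untreated plants, where 0 means no effect and 10 means complete control, taken twelve to sixteen days after application. Treatments went onto soil at planting and onto foliage of 1- to 4-leaf plants, using a surfactant-containing non-phytotoxic solvent.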

blackgrass = experiment: Test B pre/postemergence blackgrass; type: in vivo, Alopecurus myosuroides
How it was run: as §1

surinam grass = experiment: Test B pre/postemergence surinam grass; type: in vivo, Brachiaria decumbens
How it was run: as §1

cocklebur = experiment: Test B pre/postemergence cocklebur; type: in vivo, Xanthium strumarium
How it was run: as §1

corn = experiment: Test B pre/postemergence corn; type: in vivo, Zea mays
How it was run: as §1

crabgrass = experiment: Test B pre/postemergence crabgrass; type: in vivo, Digitaria sanguinalis
How it was run: as §1

pigweed = experiment: Test B pre/postemergence pigweed; type: in vivo, Amaranthus retroflexus
How it was run: as §1

rape = experiment: Test B pre/postemergence rape; type: in vivo, Brassica napus
How it was run: as §1

soybean = experiment: Test B pre/postemergence soybean; type: in vivo, Glycine max
How it was run: as §1

sugar beet = experiment: Test B pre/postemergence sugar beet; type: in vivo, Beta vulgaris
How it was run: as §1

velvetleaf = experiment: Test B pre/postemergence velvetleaf; type: in vivo, Abutilon theophrasti
How it was run: as §1

wheat = experiment: Test B pre/postemergence wheat; type: in vivo, Triticum aestivum
How it was run: as §1

wild oat = experiment: Test B pre/postemergence wild oat; type: in vivo, Avena fatua
How it was run: as §1

purple nutsedge = experiment: Test B pre/postemergence purple nutsedge; type: in vivo, Cyperus rotundus
How it was run: as §1

smallflower flatsedge = experiment: Test B flood test smallflower flatsedge; type: in vivo, Cyperus difformis
How it was run: (§2)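 Plants were grown to the 2-leaf stage before treatment with test chemical, then held in a greenhouse for twelve to sixteen days. Injury was visually rated against untreated controls on a 0–10 scale, where 0 is no effect and 10 is complete control.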

bamyardgrass = experiment: Test B flood test barnyardgrass; type: in vivo, Echinochloa crus-galli
How it was run: as §2

[1] = Preemergence, Rate 62 g/ha, scale of 0 to 10 where 0 is no effect and 10 is complete control
[2] = Preemergence, Rate 250 g/ha, scale of 0 to 10 where 0 is no effect and 10 is complete control
[3] = Preemergence, Rate 500 g/ha, scale of 0 to 10 where 0 is no effect and 10 is complete control
[4] = Rate 62 g/ha, Postemergence, scale 0 to 10, 0 no effect, 10 complete control
[5] = Rate 125 g/ha, Postemergence, scale of 0 to 10 where 0 is no effect and 10 is complete control
[6] = Rate 250 g/ha, Postemergence, scale of 0 to 10 where 0 is no effect and 10 is complete control
[7] = Rate 500 g/ha, Postemergence, scale 0 to 10, 0 no effect, 10 complete control
[8] = Rate 125 g/ha, Preemergence, scale of 0 to 10 where 0 is no effect and 10 is complete control
[9] = Rate 62 g/ha, headed Pre-emergence (flood test species), scale 0 to 10 (0 no effect, 10 complete control)
[10] = Rate 125 g/ha, Pre-emergence, flood test species, scale 0 to 10 where 0 is no effect and 10 is complete control
[11] = Rate 250 g/ha, Pre-emergence, flood-test species, scale 0 to 10, 0 is no effect, 10 is complete control
[12] = Rate 500 g/ha, Pre-emergence, flood test species, scale 0 to 10 (0 no effect, 10 complete control)

CC(C)N(C(=O)n1oc(=O)n(C2CCCC2)c1=O)c1ccc(Cl)cc1 [Compound 282]
8: Bedstraw plant response rating (bedstraw; [7]) | Plant response rating, Blackgrass (blackgrass; [3]) | Blackgrass plant response rating (blackgrass; [7]) | Plant response rating, Crabgrass (crabgrass; [3]) | Redroot pigweed plant response rating (pigweed; [7]) | Rape plant response rating (rape; [7])
5: Bedstraw plant response rating (bedstraw; [4]) | Bedstraw plant response rating (bedstraw; [5]) | Plant response rating, Blackgrass (blackgrass; [6]) | Wild oats plant response rating (wild oat; [2])
1: Blackgrass plant response rating (blackgrass; [8]) | B. signalgrass plant response rating (surinam grass; [8]) | Crabgrass plant response rating (crabgrass; [1]) | Crabgrass plant response rating (crabgrass; [8]) | Redroot pigweed plant response rating (pigweed; [1])
6: Crabgrass plant response rating (crabgrass; [2]) | Redroot pigweed plant response rating (pigweed; [5]) | Redroot pigweed plant response rating (pigweed; [8]) | Plant response rating, Rape (rape; [6]) | Sugarbeets plant response rating (sugar beet; [5])
4: Blackgrass plant response rating (blackgrass; [2]) | Redroot pigweed plant response rating (pigweed; [4]) | Plant response rating, Soybean (soybean; [6]) | Soybean plant response rating (soybean; [7]) | S. Flatsedge plant response rating (smallflower flatsedge; [12])
7: Plant response rating, Bedstraw (bedstraw; [6]) | Plant response rating, B. signalgrass (surinam grass; [3]) | Redroot pigweed plant response rating (pigweed; [2]) | Plant response rating, Redroot pigweed (pigweed; [6]) | Rape plant response rating (rape; [2]) | Plant response rating, Sugarbeets (sugar beet; [6]) | Sugarbeets plant response rating (sugar beet; [7]) | Plant response rating, Wild oats (wild oat; [3]) | Barnyardgrass plant response rating (bamyardgrass; [9]) | Barnyardgrass plant response rating (bamyardgrass; [10])
9: Plant response rating, Redroot pigweed (pigweed; [3]) | Barnyardgrass plant response rating (bamyardgrass; [11]) | Barnyardgrass plant response rating (bamyardgrass; [12])
3: Rape plant response rating (rape; [5]) | Soybean plant response rating (soybean; [4]) | Soybean plant response rating (soybean; [5]) | Plant response rating, Sugarbeets (sugar beet; [3]) | Plant response rating, Velvetleaf (velvetleaf; [6]) | Velvetleaf plant response rating (velvetleaf; [7])
2: Bedstraw plant response rating (bedstraw; [2]) | Plant response rating, Bedstraw (bedstraw; [3]) | Blackgrass plant response rating (blackgrass; [5]) | B. signalgrass plant response rating (surinam grass; [2]) | B. signalgrass plant response rating (surinam grass; [7]) | Plant response rating, Cocklebur (cocklebur; [6]) | Cocklebur plant response rating (cocklebur; [7]) | Plant response rating, Rape (rape; [3]) | Rape plant response rating (rape; [4]) | Sugarbeets plant response rating (sugar beet; [4]) | S. Flatsedge plant response rating (smallflower flatsedge; [11])
0: Bedstraw plant response rating (bedstraw; [1]) | Blackgrass plant response rating (blackgrass; [1]) | Blackgrass plant response rating (blackgrass; [4]) | B. signalgrass plant response rating (surinam grass; [1]) | B. signalgrass plant response rating (surinam grass; [4]) | B. signalgrass plant response rating (surinam grass; [5]) | Plant response rating, B. signalgrass (surinam grass; [6]) | Plant response rating, Cocklebur (cocklebur; [3]) | Cocklebur plant response rating (cocklebur; [4]) | Cocklebur plant response rating (cocklebur; [5]) | Cocklebur plant response rating (cocklebur; [8]) | Corn plant response rating (corn; [1]) | Corn plant response rating (corn; [2]) | Plant response rating, Corn (corn; [3]) | Corn plant response rating (corn; [4]) | Corn plant response rating (corn; [5]) | Corn plant response rating (corn; [8]) | Plant response rating, Corn (corn; [6]) | Corn plant response rating (corn; [7]) | Crabgrass plant response rating (crabgrass; [4]) | Crabgrass plant response rating (crabgrass; [5]) | Plant response rating, Crabgrass (crabgrass; [6]) | Crabgrass plant response rating (crabgrass; [7]) | Rape plant response rating (rape; [1]) | Rape plant response rating (rape; [8]) | Soybean plant response rating (soybean; [1]) | Soybean plant response rating (soybean; [2]) | Plant response rating, Soybean (soybean; [3]) | Soybean plant response rating (soybean; [8]) | Sugarbeets plant response rating (sugar beet; [1]) | Sugarbeets plant response rating (sugar beet; [2]) | Sugarbeets plant response rating (sugar beet; [8]) | Velvetleaf plant response rating (velvetleaf; [1]) | Velvetleaf plant response rating (velvetleaf; [2]) | Plant response rating, Velvetleaf (velvetleaf; [3]) | Velvetleaf plant response rating (velvetleaf; [4]) | Velvetleaf plant response rating (velvetleaf; [5]) | Velvetleaf plant response rating (velvetleaf; [8]) | Wheat plant response rating (wheat; [1]) | Wheat plant response rating (wheat; [2]) | Plant response rating, Wheat (wheat; [3]) | Wheat plant response rating (wheat; [4]) | Wheat plant response rating (wheat; [5]) | Wheat plant response rating (wheat; [8]) | Plant response rating, Wheat (wheat; [6]) | Wheat plant response rating (wheat; [7]) | Wild oats plant response rating (wild oat; [1]) | Wild oats plant response rating (wild oat; [4]) | Wild oats plant response rating (wild oat; [5]) | Plant response rating, Wild oats (wild oat; [6]) | Wild oats plant response rating (wild oat; [7]) | Nutsedge plant response rating (purple nutsedge; [1]) | Nutsedge plant response rating (purple nutsedge; [2]) | Nutsedge plant response rating (purple nutsedge; [4]) | Nutsedge plant response rating (purple nutsedge; [5]) | Nutsedge plant response rating (purple nutsedge; [8]) | Plant response rating, Nutsedge (purple nutsedge; [6]) | Nutsedge plant response rating (purple nutsedge; [7]) | S. Flatsedge plant response rating (smallflower flatsedge; [9]) | S. Flatsedge plant response rating (smallflower flatsedge; [10])
